Literature values in US20090136550A1, “MODIFIED RELEASE FORMULATIONS OF DILTIAZEM” (Capricorn Pharma Inc., priority 2007, published 2009).
Structures can show the parent of a compound that is named as a salt.

water solubility: highly water soluble
Compound: COc1ccc([C@@H]2Sc3ccccc3N(CCN(C)C)C(=O)[C@@H]2OC(C)=O)cc1 [diltiazem hydrochloride]
